# Key:
# Experiment in all cases: KinaseProfiler panel
# Type in all cases: biochemical
# Conditions in all cases: activity remaining
# DAPK1(h) = DAPK1(h) (Homo sapiens (Human), UniProt P53355); set-up: dose or concentration left out as unconfirmed
# TYK2(h) = TYK2(h) (Homo sapiens (Human), UniProt P29597); set-up: dose or concentration left out as unconfirmed
# HPK1(h) = HPK1(h) (Homo sapiens (Human), UniProt Q92918); set-up: dose or concentration left out as unconfirmed
# GCK(h) = GCK(h) (Homo sapiens (Human), UniProt Q12851); set-up: dose or concentration left out as unconfirmed
# Pim-1(h) = Pim-1(h) (Homo sapiens (Human), UniProt P11309); set-up: dose or concentration left out as unconfirmed
# Sequence of Pim-1(h) (P11309 whole entry): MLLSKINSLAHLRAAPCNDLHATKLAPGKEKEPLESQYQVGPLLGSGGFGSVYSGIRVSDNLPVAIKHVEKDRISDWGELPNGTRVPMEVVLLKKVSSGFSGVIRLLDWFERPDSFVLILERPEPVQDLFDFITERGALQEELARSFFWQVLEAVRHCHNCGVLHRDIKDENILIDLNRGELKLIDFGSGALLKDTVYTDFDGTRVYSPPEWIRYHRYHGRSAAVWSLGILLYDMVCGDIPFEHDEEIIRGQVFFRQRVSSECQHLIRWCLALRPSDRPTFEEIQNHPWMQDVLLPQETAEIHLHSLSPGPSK
# FGFR2(h) = FGFR2(h) (Homo sapiens (Human), UniProt P21802); set-up: dose or concentration left out as unconfirmed
# Sequence of FGFR2(h) (P21802 22-821): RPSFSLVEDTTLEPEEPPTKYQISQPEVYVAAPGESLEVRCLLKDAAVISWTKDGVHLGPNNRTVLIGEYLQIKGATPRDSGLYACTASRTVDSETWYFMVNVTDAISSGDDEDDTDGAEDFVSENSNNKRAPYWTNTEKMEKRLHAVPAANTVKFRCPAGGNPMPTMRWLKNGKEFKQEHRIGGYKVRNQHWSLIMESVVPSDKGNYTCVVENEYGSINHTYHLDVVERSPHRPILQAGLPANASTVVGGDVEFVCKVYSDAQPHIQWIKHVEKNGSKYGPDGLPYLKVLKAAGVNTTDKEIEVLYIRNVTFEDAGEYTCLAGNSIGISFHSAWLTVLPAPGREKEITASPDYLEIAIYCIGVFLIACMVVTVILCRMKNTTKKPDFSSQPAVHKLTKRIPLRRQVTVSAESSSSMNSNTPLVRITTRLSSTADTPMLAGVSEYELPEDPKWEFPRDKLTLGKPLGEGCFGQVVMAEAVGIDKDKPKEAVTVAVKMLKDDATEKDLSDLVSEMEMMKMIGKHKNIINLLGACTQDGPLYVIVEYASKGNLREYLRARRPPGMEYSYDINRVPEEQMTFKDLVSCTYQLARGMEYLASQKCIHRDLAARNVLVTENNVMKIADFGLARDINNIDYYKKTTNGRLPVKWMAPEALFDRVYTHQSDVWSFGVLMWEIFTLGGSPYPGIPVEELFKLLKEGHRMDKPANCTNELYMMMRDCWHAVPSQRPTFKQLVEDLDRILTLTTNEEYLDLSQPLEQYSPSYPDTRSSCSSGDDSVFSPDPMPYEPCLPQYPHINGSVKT
# Hck(h) = Hck(h) (Homo sapiens (Human), UniProt P08631); set-up: dose or concentration left out as unconfirmed
# NEK7(h) = NEK7(h) (Homo sapiens (Human), UniProt Q8TDX7); set-up: dose or concentration left out as unconfirmed
# Pim-3(h) = Pim-3(h) (Homo sapiens (Human), UniProt Q86V86); set-up: dose or concentration left out as unconfirmed
# PKCδ(h) = PKCδ(h) (Homo sapiens (Human), UniProt Q05655); set-up: dose or concentration left out as unconfirmed
# HIPK1(h) = HIPK1(h) (Homo sapiens (Human), UniProt Q86Z02); set-up: dose or concentration left out as unconfirmed
# ULK3(h) = ULK3(h) (Homo sapiens (Human), UniProt Q6PHR2); set-up: dose or concentration left out as unconfirmed
# Sequence of ULK3(h) (Q6PHR2 whole entry): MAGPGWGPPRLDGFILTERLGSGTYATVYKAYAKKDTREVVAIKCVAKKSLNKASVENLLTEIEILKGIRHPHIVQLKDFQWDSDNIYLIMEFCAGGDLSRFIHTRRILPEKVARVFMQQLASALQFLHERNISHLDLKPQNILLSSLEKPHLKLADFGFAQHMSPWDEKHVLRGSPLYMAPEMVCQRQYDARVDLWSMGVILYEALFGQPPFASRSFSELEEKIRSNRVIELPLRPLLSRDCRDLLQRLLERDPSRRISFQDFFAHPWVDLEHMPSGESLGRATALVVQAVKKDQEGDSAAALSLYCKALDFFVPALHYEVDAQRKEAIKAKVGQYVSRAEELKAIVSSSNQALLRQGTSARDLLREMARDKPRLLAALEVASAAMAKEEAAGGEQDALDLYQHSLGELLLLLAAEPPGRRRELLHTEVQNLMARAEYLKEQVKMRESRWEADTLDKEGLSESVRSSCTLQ
# BMPR2(h) = BMPR2(h) (Homo sapiens (Human), UniProt Q13873); set-up: dose or concentration left out as unconfirmed
# PhKγ2(h) = PhKγ2(h) (Homo sapiens (Human), UniProt P15735); set-up: dose or concentration left out as unconfirmed
# EphA1(h) = EphA1(h) (Homo sapiens (Human), UniProt P21709); set-up: dose or concentration left out as unconfirmed
# PKCθ(h) = PKCθ(h) (Homo sapiens (Human), UniProt Q04759); set-up: dose or concentration left out as unconfirmed
# PAK1(h) = PAK1(h) (Homo sapiens (Human), UniProt Q13153); set-up: dose or concentration left out as unconfirmed
# Sequence of PAK1(h) (Q13153 whole entry): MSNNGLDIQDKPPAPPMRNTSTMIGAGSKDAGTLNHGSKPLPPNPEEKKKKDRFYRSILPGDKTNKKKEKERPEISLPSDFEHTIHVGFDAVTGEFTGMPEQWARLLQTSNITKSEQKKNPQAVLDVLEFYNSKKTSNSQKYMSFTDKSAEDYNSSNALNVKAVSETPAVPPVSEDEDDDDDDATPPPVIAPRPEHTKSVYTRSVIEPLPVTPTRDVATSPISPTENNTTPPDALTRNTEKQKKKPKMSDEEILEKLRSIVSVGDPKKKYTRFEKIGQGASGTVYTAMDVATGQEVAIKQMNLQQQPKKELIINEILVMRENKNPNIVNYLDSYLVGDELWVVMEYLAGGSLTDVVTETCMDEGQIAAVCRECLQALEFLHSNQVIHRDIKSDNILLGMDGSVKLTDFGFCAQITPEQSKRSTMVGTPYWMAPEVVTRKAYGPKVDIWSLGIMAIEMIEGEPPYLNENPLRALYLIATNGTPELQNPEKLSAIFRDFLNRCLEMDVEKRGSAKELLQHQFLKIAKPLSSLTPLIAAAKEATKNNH
# ROCK-II(h) = ROCK-II(h) (Homo sapiens (Human), UniProt O75116); set-up: dose or concentration left out as unconfirmed
# CDK2/cyclinA(h) = CDK2/cyclinA(h) (Homo sapiens (Human), UniProt P24941); set-up: dose or concentration left out as unconfirmed
# MEKK2(h) = MEKK2(h) (Homo sapiens (Human), UniProt Q9Y2U5)
# CK1γ1(h) = CK1γ1(h) (Homo sapiens (Human), UniProt Q9HCP0); set-up: dose or concentration left out as unconfirmed
# PI3 Kinase (p120g)(h) = PI3 Kinase (p120g)(h) (Homo sapiens (Human), UniProt P48736)
# PDGFRβ(h) = PDGFRβ(h) (Homo sapiens (Human), UniProt P09619); set-up: dose or concentration left out as unconfirmed
# DCAMKL2(h) = DCAMKL2(h) (Homo sapiens (Human), UniProt Q8N568); set-up: dose or concentration left out as unconfirmed
# IRE1(h) = IRE1(h) (Homo sapiens (Human), UniProt O75460); set-up: dose or concentration left out as unconfirmed
# Sequence of IRE1(h) (O75460 19-977): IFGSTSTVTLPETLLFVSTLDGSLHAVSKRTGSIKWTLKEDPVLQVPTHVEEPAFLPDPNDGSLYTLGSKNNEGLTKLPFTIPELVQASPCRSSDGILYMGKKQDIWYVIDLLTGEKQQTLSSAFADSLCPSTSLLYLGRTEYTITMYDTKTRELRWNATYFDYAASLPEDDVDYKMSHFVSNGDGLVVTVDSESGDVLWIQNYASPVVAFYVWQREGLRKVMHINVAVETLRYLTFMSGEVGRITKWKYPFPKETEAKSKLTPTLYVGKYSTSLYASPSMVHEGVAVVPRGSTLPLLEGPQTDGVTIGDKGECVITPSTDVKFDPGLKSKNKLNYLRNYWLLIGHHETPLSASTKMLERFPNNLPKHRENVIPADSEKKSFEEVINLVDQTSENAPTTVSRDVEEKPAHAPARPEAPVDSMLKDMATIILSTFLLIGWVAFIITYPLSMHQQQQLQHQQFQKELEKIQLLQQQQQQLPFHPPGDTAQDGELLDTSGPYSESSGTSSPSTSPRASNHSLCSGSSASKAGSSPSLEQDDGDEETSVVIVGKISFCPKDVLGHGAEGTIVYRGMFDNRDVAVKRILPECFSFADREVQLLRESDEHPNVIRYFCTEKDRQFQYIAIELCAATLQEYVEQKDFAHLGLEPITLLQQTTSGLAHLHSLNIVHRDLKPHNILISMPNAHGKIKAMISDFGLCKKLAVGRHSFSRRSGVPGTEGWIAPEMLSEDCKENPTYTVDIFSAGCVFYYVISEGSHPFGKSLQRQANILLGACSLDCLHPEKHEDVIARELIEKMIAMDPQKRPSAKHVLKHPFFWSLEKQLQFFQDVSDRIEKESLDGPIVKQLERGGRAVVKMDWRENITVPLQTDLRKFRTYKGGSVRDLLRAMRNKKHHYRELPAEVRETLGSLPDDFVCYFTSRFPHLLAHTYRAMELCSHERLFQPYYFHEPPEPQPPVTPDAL
# PAR-1Bα(h) = PAR-1Bα(h) (Homo sapiens (Human), UniProt Q7KZI7); set-up: dose or concentration left out as unconfirmed
# Sequence of PAR-1Bα(h) (Q7KZI7 other isoform, or with tags, fused parts or gaps isoform Q7KZI7-4): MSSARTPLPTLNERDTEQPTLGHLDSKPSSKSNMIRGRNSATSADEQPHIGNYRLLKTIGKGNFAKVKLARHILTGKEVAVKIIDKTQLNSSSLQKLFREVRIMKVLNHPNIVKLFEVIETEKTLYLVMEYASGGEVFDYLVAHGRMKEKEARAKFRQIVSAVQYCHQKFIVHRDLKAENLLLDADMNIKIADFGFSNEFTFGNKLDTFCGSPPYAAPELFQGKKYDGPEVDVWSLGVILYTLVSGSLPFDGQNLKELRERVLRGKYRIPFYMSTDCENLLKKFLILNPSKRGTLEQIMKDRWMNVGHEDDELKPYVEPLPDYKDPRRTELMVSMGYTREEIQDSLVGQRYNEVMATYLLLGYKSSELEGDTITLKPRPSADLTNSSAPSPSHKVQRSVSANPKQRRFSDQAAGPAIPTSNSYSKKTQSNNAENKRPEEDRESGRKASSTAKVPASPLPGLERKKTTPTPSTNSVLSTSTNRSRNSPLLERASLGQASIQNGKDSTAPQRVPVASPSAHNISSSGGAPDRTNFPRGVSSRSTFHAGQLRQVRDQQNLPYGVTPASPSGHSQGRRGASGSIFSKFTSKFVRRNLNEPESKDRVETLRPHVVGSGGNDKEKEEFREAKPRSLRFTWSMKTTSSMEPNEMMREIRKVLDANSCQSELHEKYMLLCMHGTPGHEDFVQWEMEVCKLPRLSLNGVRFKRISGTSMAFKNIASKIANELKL
# PRK2(h) = PRK2(h) (Homo sapiens (Human), UniProt Q16513); set-up: dose or concentration left out as unconfirmed
# MST1(h) = MST1(h) (Homo sapiens (Human), UniProt Q13043); set-up: dose or concentration left out as unconfirmed
# AMPKα1(h) = AMPKα1(h) (Homo sapiens (Human), UniProt Q13131); set-up: dose or concentration left out as unconfirmed
# IKKα(h) = IKKα(h) (Homo sapiens (Human), UniProt O15111); set-up: dose or concentration left out as unconfirmed
# TSSK2(h) = TSSK2(h) (Homo sapiens (Human), UniProt Q96PF2); set-up: dose or concentration left out as unconfirmed
# Sequence of TSSK2(h) (Q96PF2 whole entry): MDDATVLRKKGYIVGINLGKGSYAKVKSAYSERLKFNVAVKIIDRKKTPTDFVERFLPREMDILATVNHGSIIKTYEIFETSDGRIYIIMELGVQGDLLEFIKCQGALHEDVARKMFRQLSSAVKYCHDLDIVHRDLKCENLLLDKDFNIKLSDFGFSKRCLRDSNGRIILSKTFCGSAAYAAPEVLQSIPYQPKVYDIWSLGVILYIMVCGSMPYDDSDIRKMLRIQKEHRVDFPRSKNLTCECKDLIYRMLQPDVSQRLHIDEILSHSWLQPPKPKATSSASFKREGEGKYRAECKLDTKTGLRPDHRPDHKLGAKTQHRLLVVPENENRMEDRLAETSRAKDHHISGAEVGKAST
# PKCγ(h) = PKCγ(h) (Homo sapiens (Human), UniProt P05129); set-up: dose or concentration left out as unconfirmed
# VRK1(h) = VRK1(h) (Homo sapiens (Human), UniProt Q99986); set-up: dose or concentration left out as unconfirmed
# Sequence of HPK1(h) (Q92918 whole entry): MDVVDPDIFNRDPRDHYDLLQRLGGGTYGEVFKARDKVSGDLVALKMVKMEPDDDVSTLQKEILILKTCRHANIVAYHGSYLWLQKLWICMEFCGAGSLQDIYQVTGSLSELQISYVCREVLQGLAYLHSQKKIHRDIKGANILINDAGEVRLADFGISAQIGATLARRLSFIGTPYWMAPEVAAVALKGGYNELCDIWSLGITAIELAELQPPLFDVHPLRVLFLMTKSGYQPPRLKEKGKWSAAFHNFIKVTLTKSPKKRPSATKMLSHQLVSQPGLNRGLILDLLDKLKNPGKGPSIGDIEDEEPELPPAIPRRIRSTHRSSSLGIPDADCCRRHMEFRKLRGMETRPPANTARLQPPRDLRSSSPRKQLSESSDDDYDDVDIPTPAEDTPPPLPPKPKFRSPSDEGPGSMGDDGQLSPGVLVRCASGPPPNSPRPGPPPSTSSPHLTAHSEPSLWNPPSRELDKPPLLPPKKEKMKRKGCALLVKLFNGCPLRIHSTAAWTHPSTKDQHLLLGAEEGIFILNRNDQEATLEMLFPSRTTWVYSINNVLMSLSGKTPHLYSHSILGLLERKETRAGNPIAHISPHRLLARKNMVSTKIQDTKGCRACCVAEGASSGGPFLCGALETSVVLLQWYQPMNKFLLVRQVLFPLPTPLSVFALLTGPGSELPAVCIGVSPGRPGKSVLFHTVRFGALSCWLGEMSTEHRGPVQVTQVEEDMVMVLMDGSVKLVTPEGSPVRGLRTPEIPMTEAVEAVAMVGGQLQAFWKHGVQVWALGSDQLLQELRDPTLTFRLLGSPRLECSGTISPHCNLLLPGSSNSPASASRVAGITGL
structure (smiles),measurement,setting,value
"Cc1cc2c(-c3ccc(NC(=O)[C@H](N)CC(C)(C)C)cc3C)ccnc2[nH]1 [Compound F-90, (2R)-2-Amino-4,4-dimethyl-N-[3-methyl-4-(2-methyl-1H-pyrrolo[2,3-b]pyridin-4-yl)phenyl]pentanamide]",% Activity,DAPK1(h),82%
same,% Activity,TYK2(h),103%
same,% Activity,HPK1(h),73%
same,% Activity,GCK(h),118%
same,% Activity,Pim-1(h),95%
same,% Activity,FGFR2(h),89%
same,% Activity,Hck(h),99%
same,% Activity,NEK7(h),88%
same,% Activity,Pim-3(h),103%
same,% Activity,PKCδ(h),93%
same,% Activity,HIPK1(h),100%
same,% Activity,ULK3(h),95%
same,% Activity,BMPR2(h),85%
same,% Activity,PhKγ2(h),98%
same,% Activity,EphA1(h),92%
same,% Activity,PKCθ(h),103%
same,% Activity,PAK1(h),95%
same,% Activity,ROCK-II(h),96%
same,% Activity,CDK2/cyclinA(h),87%
same,% Activity,MEKK2(h),122%
same,% Activity,CK1γ1(h),101%
same,% Activity,PI3 Kinase (p120g)(h),105%
same,% Activity,PDGFRβ(h),105%
same,% Activity,DCAMKL2(h),104%
same,% Activity,IRE1(h),99%
same,% Activity,PAR-1Bα(h),88%
same,% Activity,PRK2(h),92%
same,% Activity,MST1(h),76%
same,% Activity,AMPKα1(h),120%
same,% Activity,IKKα(h),98%
same,% Activity,TSSK2(h),113%
same,% Activity,PKCγ(h),97%
same,% Activity,VRK1(h),99%
